Reference: article PMC7589200, “Identification of Putative Non-Substrate-Based XT-I Inhibitors by Natural Product Library Screening” (Biomolecules, 2020)
Where two headings read alike, the source gives them in different places.

Key:
recombinant human XT-I = molecular target: T1, recombinant human XT-I (Homo sapiens, UniProt Q86Y38); test: NP library inhibitor screening, UPLC/ESI-MS/MS XT-I assay; type: biochemical
T1 sequence (Q86Y38 252-959 limits assumed): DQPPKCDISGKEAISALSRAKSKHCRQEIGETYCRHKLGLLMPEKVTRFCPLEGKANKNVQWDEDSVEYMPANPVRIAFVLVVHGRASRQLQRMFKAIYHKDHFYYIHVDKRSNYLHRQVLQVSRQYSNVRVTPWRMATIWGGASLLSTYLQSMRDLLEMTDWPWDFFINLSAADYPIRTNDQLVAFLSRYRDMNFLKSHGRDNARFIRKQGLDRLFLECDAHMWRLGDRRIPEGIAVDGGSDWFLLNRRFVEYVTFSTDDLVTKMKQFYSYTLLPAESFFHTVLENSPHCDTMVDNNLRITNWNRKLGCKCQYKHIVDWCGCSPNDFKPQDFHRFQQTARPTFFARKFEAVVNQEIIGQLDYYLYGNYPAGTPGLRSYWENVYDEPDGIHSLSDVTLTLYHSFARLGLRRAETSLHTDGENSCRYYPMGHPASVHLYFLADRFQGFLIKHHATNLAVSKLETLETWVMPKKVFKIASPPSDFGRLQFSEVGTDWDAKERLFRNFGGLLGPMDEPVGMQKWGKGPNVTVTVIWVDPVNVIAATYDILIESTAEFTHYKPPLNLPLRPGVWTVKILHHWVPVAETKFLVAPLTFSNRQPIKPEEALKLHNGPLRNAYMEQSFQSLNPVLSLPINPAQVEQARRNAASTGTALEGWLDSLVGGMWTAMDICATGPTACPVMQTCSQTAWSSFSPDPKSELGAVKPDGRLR

TGFB1 mRNA expression = TGFB1 mRNA expression in NHDFs by qRT-PCR; type: cell-based, human; conditions: TGF-β1 5 μg/L, 48 h
Protocol: (§1) A former established cell culture model was utilized to investigate the effect of putative XT-I inhibitors on NHDFs. The inhibition studies were carried out with final inhibitor concentrations of 0.5, 1.0, 2.0 or 4.0 μM diluted in fully supplemented DMEM. In brief, unless otherwise stated, NHDFs were cultivated with a low density of 50 cells per mm^2 on a hard tissue culture substrate (100 × 20 mm dish) in fully supplemented DMEM with or without additional TGF-β1 (5 μg/L) for 24 h, promoting their transdifferentiation into proto-myofibroblasts. Thereafter, cells were treated with celastrol or amphotericin B in the presence or absence of TGF-β1 (5 μg/L) for an additional 48 h. Negative controls treated with solvent only were included for every sampling time. The final DMSO content of 0.04% (v/v) was kept constant in all inhibition experiments.
(§2) The RNA extraction from cell lysates and cDNA synthesis for mRNA and miRNA expression analysis were performed as described previously.
(§3) Quantitative real-time polymerase chain reaction (qRT-PCR) analysis using a LightCycler 480 Instrument II system (Roche, Basel, Swiss) was performed as previously described. […] The geometric mean of the expression levels of the housekeeping genes SDHA, RPL13A and B2M were calculated for expression normalization. The relative target gene mRNA expressions were determined by the ΔΔCT method considering the PCR efficiency. […]

SMAD7 mRNA expression = SMAD7 mRNA expression in NHDFs by qRT-PCR; type: cell-based, human; conditions: TGF-β1 5 μg/L, 48 h
Protocol: as §1, with “experiments. […]” for “experiments.”
as §3

miRNA-21 = miRNA-21 expression in NHDFs, TaqMan advanced miRNA assay; type: cell-based, human; conditions: TGF-β1 5 µg/L, 48 h, serum-starved NHDFs
Protocol: as §2
The TaqMan advanced miRNA Assay (Thermo Fisher Scientific; Waltham, Massachusetts, United States) was performed, according to the manufacturer’s instructions, for the miRNA expression analyses. The primer assays miRNA-21 (477975_mir) and miRNA-191 (477952_mir) were used. The expression level of miRNA-21 determined was normalized to internal housekeeping gene expression of miRNA-191 via the ΔΔCT method.

XYLT2 mRNA expression = XYLT2 mRNA expression in NHDFs by qRT-PCR; type: cell-based, human; conditions: TGF-β1 (5 μg/L) supplementation, 48 h
Protocol: as §1, §2
(§4) Quantitative real-time polymerase chain reaction (qRT-PCR) analysis using a LightCycler 480 Instrument II system (Roche, Basel, Swiss) was performed as previously described. The qRT-PCR experiments were conducted with three biological and three technical replicates per donor-derived primary cell culture, unless otherwise stated. The intron-spanning primer sequences used are listed in [7] and Table 1. The geometric mean of the expression levels of the housekeeping genes SDHA, RPL13A and B2M were calculated for expression normalization. The relative target gene mRNA expressions were determined by the ΔΔCT method considering the PCR efficiency. All normalized gene expression levels shown were referred to the respective target gene expression of one primary cell culture sample for the relative comparison of multiple biological samples per experiment and figures.

XYLT1 mRNA expression = XYLT1 mRNA expression in NHDFs by qRT-PCR; type: cell-based, human; conditions: TGF-β1 5 μg/L, 48 h
Protocol: as §1, with “experiments. […]” for “experiments.”
as §2, §4

[1] = Table S1, 50 μM inhibitor, relative to negative control containing DMSO, technical duplicates

COc1cc(CNC(=O)CCCC/C=C/C(C)C)ccc1O [Compound 94, Capsaicin (Vanilloid)]
XT-I Activity [%] (recombinant human XT-I): 135%

C[C@@H]1C(=O)O[C@H]2C[C@@]34[C@H]5C[C@@H](C(C)(C)C)[C@]36[C@@H](OC(=O)[C@@H]6O)O[C@@]4(C(=O)O5)[C@]21O [Compound 95, Ginkgolide A]
remaining activity at 50 µM (recombinant human XT-I; [1]): 150%

Bleomycin sulfate [Compound 96]
XT-I Activity [%] (recombinant human XT-I; [1]): 149%

Ginkgolide B [Compound 69]
XT-I Activity [%] (recombinant human XT-I; [1]): 100%

Oxytetracycline (Terramycin) [Compound 74]
XT-I Activity [%] (recombinant human XT-I; Table 2, 50 μM inhibitor, relative to control (DMSO = 100%), technical duplicates): 17%
XT-I Activity [%] (recombinant human XT-I; [1]): 17%

TGF-β1: Recombinant human TGF-β1, pro-fibrotic mediator used to stimulate fibroblasts
TGFB1 mRNA expression (autoinduction) relative to control (TGFB1 mRNA expression): 1.1 ± 0.08 fold
SMAD7 mRNA expression relative to control (SMAD7 mRNA expression): 1.8 ± 0.2 fold
miRNA-21 expression relative to untreated (miRNA-21): 2.5 ± 0.2 fold
XYLT2 mRNA expression level (XYLT2 mRNA expression): unaffected
increase in XYLT1 mRNA expression relative to untreated control (XYLT1 mRNA expression; Figure 5A–D): 3.7 ± 0.3 fold
increase in XYLT1 mRNA expression relative to untreated control (XYLT1 mRNA expression; Figure 5E): 4.6 ± 0.2 fold

Vitamin B12 [Compound 65]
XT-I Activity [%] (recombinant human XT-I; [1]): 94%
